Data set [1] concerns the target Adrenergic receptor alpha-2 (Rattus norvegicus) (UniProt P22086+P19328+P22909). The data set can be described thus: Displacement of [3H]-clonidine from adrenergic alpha2 receptor in Wistar rat cortex at 10^-5 M incubated for 25 mins by microbeta liquid scintillation counting analysis. (In general: Displacement assays read how much labelled ligand stays bound in the presence of the test substance.)

Data set [2] concerns the target T1, Adrenergic receptor alpha-1 (Rattus norvegicus) (UniProt P15823+P23944+P43140). The data set can be described thus: Antagonist activity at adrenergic alpha1 receptor in isolated Wistar rat aorta assessed as inhibition of […] contraction incubated for 20 mins.
In data set [3] the test system is Rattus norvegicus. In words: Hypotensive activity in normotensive Wistar rat assessed as diastolic blood pressure at 1 mg/kg, iv measured after 5 mins (reference value: 88.4 to 122.7 mmHg). The data set is classed as functional.
Data set [4] relates to Rattus norvegicus. The data set can be described thus: Cardiotoxicity in Wistar rat assessed as effect on PQ interval time at 5 mg/kg, iv measured after 5 mins (reference value: 52 to 57 ms). Particulars: in vivo. The data set is classed as toxicity, organism-based.
Data set [5] deals with Rattus norvegicus. In words: Hypotensive activity in normotensive Wistar rat assessed as systolic blood pressure at 0.5 mg/kg, iv measured after 10 mins (reference value: 147.7 +/- 5.9 mmHg). The data set is classed as functional.
Data set [6] addresses Beta-1 adrenergic receptor (Rattus norvegicus, UniProt P18090). The data set can be described thus: Displacement of [3H]-CGP-12177 from adrenergic beta1 receptor in Wistar rat cortex incubated for 60 mins by microbeta liquid scintillation counting analysis.
In data set [7] the test system is Rattus norvegicus. In words: Hypotensive activity in normotensive Wistar rat assessed as systolic blood pressure at 1 mg/kg, iv measured after 10 mins (reference value: 122.4 to 156.5 mmHg). The data set is classed as functional.
Data set [8] deals with Rattus norvegicus. The data set can be described thus: Hypotensive activity in normotensive Wistar rat assessed as systolic blood pressure at 1 mg/kg, iv measured after 5 mins (reference value: 122.4 to 156.5 mmHg). Type of data set: functional.
Data set [9] has as its system Rattus norvegicus. In words: Hypotensive activity in normotensive Wistar rat assessed as diastolic blood pressure at 1 mg/kg, iv measured after 10 mins (reference value: 88.4 to 122.7 mmHg). The data set is classed as functional.
Data set [10] concerns Rattus norvegicus. In words: Antiarrhythmic activity in Wistar rat assessed as inhibition of adrenaline-induced premature ventricular extrasystoles administered iv 15 mins prior to adrenaline challenge. Type of data set: functional.
Data set [11] concerns Rattus norvegicus. In words: Cardiotoxicity in Wistar rat assessed as effect on PQ interval time at 5 mg/kg, iv measured after 15 mins (reference value: 52 to 57 ms). Particulars: in vivo, 0.25 h. Type of data set: toxicity, organism-based.
In data set [12] the test system is Rattus norvegicus. In words: Hypotensive activity in normotensive Wistar rat assessed as diastolic blood pressure at 1 mg/kg, iv measured after 60 mins (reference value: 88.4 to 122.7 mmHg). Type of data set: functional.
Data set [13] has as its system Blood. The data set can be described thus: Anti-aggregative activity in Wistar rat whole blood assessed as inhibition of collagen-induced aggregation preincubated for 3 mins followed by collagen induction measured for 6 mins. The data set is classed as functional, tissue-based.
The test system of data set [14] is Rattus norvegicus. The data set can be described thus: Hypotensive activity in normotensive Wistar rat assessed as systolic blood pressure at 5 mg/kg, iv measured after 5 mins (reference value: 119.2 to 148.6 mmHg). Type of data set: functional.
Data set [15] relates to Rattus norvegicus. In words: Hypotensive activity in normotensive Wistar rat assessed as systolic blood pressure at 1 mg/kg, iv measured after 20 mins (reference value: 122.4 to 156.5 mmHg). The data set is classed as functional.
Data set [16] relates to Rattus norvegicus. In words: Hypotensive activity in normotensive Wistar rat assessed as diastolic blood pressure at 5 mg/kg, iv measured after 30 mins (reference value: 86.5 to 119.4 mmHg). The data set is classed as functional.
The test system of data set [17] is Rattus norvegicus. In words: Hypotensive activity in normotensive Wistar rat assessed as diastolic blood pressure at 1 mg/kg, iv measured after 20 mins (reference value: 88.4 to 122.7 mmHg). The data set is classed as functional.
In data set [18] the test system is Rattus norvegicus. The data set can be described thus: Cardiotoxicity in Wistar rat assessed as effect on PQ interval time at 5 mg/kg, iv measured after 1 min (reference value: 52 to 57 ms). Conditions: in vivo. Type of data set: toxicity, organism-based.
Data set [19] has as its system Rattus norvegicus. The data set can be described thus: Hypotensive activity in normotensive Wistar rat assessed as systolic blood pressure at 1 mg/kg, iv measured after 60 mins (reference value: 122.4 to 156.5 mmHg). Type of data set: functional.
In data set [20] the test system is Rattus norvegicus. In words: Hypotensive activity in normotensive Wistar rat assessed as reduction in diastolic blood pressure at 0.5 mg/kg, iv measured over 30 mins relative to control. The data set is classed as functional. On the set-up: scale not given: the % may be the effect or the level left.
In data set [21] the test system is Rattus norvegicus. In words: Hypotensive activity in normotensive Wistar rat assessed as systolic blood pressure at 1 mg/kg, iv measured after 30 mins (reference value: 122.4 to 156.5 mmHg). Type of data set: functional.
Data set [22] deals with Rattus norvegicus. The data set can be described thus: Hypotensive activity in normotensive Wistar rat assessed as diastolic blood pressure at 5 mg/kg, iv measured after 5 mins (reference value: 86.5 to 119.4 mmHg). Type of data set: functional.
The subject of data set [23] is Rattus norvegicus. The data set can be described thus: Hypotensive activity in normotensive Wistar rat assessed as diastolic blood pressure at 1 mg/kg, iv measured after 30 mins (reference value: 88.4 to 122.7 mmHg). Type of data set: functional.
The test system of data set [24] is Rattus norvegicus. In words: Cardiotoxicity in Wistar rat assessed as effect on QRS interval time at 5 mg/kg, iv measured after 15 mins (reference value: 16.7 to 20.7 ms). Conditions: in vivo, 0.25 h. The data set is classed as toxicity, organism-based.
Data set [25] has as its system Rattus norvegicus. The data set can be described thus: In vivo inhibition of beta adrenoceptor in Wistar rat assessed as reduction in isoprenaline-induced tachycardia at 5 mg/kg, iv administered as single dose 10 mins prior to isoprenaline injection. Type of data set: functional, organism-based.
For data set [26], the system named is Rattus norvegicus. In words: Hypotensive activity in normotensive Wistar rat assessed as systolic blood pressure at 2.5 mg/kg, iv measured after 60 mins (reference value: 148.5 +/- 2.6 mmHg). The data set is classed as functional.
The target of data set [27] is T1, Adrenergic receptor alpha-1 (Rattus norvegicus). In words: Displacement of [3H][…]prazosin from adrenergic alpha1 receptor in Wistar rat cortex at 10^-5 M incubated for 30 mins by microbeta liquid scintillation counting analysis.
Data set [28] concerns the target Beta-2 adrenergic receptor (Cavia porcellus, UniProt Q8K4Z4). In words: Antagonist activity at adrenergic beta2 receptor in isolated guinea pig trachea assessed as inhibition of isoprenaline-induced bronchodilation incubated for 20 mins. The data set is classed as functional. Conditions: read-out: pA2 (converted).

SMILES strings stand for the structures. Active and inactive are the calls of the source. The calls are words filed in the database; no cut-off is given here.

Beta-1 adrenergic receptor, sequence (P18090 whole entry): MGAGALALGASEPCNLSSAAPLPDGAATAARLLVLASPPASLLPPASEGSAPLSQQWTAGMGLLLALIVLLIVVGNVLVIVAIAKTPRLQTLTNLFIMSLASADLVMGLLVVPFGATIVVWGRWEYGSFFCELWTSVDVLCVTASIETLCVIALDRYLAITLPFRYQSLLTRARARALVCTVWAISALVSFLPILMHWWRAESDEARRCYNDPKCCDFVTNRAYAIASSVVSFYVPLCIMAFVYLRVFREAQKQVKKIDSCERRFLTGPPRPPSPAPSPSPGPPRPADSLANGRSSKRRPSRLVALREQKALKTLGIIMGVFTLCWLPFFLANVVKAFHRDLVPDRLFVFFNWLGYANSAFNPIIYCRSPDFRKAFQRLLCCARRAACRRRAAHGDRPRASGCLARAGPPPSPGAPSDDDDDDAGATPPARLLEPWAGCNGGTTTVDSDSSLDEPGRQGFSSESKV
Beta-2 adrenergic receptor, sequence (Q8K4Z4 whole entry): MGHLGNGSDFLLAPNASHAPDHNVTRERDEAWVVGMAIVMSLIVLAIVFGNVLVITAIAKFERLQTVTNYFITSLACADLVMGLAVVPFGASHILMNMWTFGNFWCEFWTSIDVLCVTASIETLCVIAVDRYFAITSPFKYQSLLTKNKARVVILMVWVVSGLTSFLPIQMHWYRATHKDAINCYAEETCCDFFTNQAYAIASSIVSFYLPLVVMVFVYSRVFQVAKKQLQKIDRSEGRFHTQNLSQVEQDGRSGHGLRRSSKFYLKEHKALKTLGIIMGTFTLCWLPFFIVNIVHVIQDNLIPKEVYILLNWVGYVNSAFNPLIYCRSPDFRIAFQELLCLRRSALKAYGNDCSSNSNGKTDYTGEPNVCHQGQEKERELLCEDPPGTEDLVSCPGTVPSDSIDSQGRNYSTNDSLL

For `Cl.O=c1c2ccccc2oc2c(OCC(O)CN3CCN(c4ccccn4)CC3)cccc12` (racemic), the outcome in [1] was inactive. The pKb (commonly the Kb on a negative log10 scale, so that one unit is a factor of ten) in data set [2] came out at 7.52. The Activity in data set [3] is on record as 111.7 mmHg; in data set [5] it was 144 mmHg; in data set [7], 146.2 mmHg; in [8], 146.2 mmHg; in [9] it was 113.5 mmHg; in data set [12], 106.7 mmHg. For the same molecule, the Activity in data set [14] is recorded as 136.8 mmHg; in data set [15] it was 142.5 mmHg; in data set [16] it was 99.8 mmHg; in data set [17], 133 mmHg; in data set [19], 138.7 mmHg; in data set [20], 5 - 9%. Moreover, the Activity in [21] came to 140 mmHg; in data set [22] it was 110.8 mmHg; in data set [23], 110.5 mmHg. The Time in data set [4] is listed as 58 ms; in [11], 59 ms; in data set [18], 58.2 ms; in data set [24] it was 19.2 ms. For the same molecule, the values for the IC50 in data set [6] and in data set [13] were 1420 nM and 64100 nM, respectively. The Ki – broadly, the dissociation constant of the complex between target and ligand, obtained from inhibition or displacement – in data set [6] was 213 nM. Further, the ED50 (in general, the dose that gives a 50% effect, or the effect in half of the subjects) in [10] came to 4.82 mg/kg. Moreover, in [13], the inhibition entry is “Dose-dependent effect”.
For `COc1ccc(CCNCC(O)COc2cccc3c(=O)c4ccccc4oc23)cc1OC.Cl` (racemic), the result in data set [1] and in data set [27] was inactive. Besides, the inhibition entry in data set [25] was “Active”. The Time in [4] worked out at 58 ms; in [11] it was 59.3 ms; in data set [18], 62.7 ms; in [24], 21.3 ms. Moreover, the Activity in data set [26] worked out at 133 mmHg; in [14], 135.4 mmHg; in [16], 96.2 mmHg; in data set [22], 101.4 mmHg. Besides, the IC50 (as a rule, the concentration needed to halve the response being measured) in data set [6] was determined as 106 nM. In [6], this molecule gave a Ki of 357 nM. For the same molecule, the Kb in data set [28] is 41.4 nM.

The values are drawn from ChEMBL document CHEMBL4118148, “Design, synthesis and cardiovascular evaluation of some aminoisopropanoloxy derivatives of xanthone” (Bioorg Med Chem, 2018).
